# US10336790B2 (priority 2014, dated 2019)
# Ends that are not written are not given here.
# Columns and labels:
# macrophage J774.16 cells = assay: Peptide cytotoxicity, Trypan Blue exclusion assay; assay type: cell-based, mouse; details: for cell death: 170 μM peptide, negative control 10%
# Method: (§1) Cytotoxicity studies were performed using three mammalian cell lines which included mouse macrophage J774.16 cell line, human lung epithelial A549 cell line, and sheep red blood cells (sRBCs) in Trypticase soy agar (TSA). Mouse macrophage J774.16 cell line (maintained in antibiotic-free Dulbecco's modified Eagle's medium containing 20% fetal bovine serum, 5% NCTC 109, 1% nonessential amino acids and 1% glutamine) or human lung epithelial A549 cell line (maintained in antibiotic-free Ham's F12 medium supplemented with 10% fetal bovine serum) was seeded at a density of approximately 1×10^5 cells per ml in Lab-tek Permanox eight-chamber microscopy slides (Nunc, Inc., Naperville, Ill.) and incubated for 3 (J774.16) or 5 (A549) days before use. After cell differentiation to a confluence of 70 to 80%, the culture media was replaced with fresh media containing the different AMPS at 64 μg/ml or at toxic dose (320 μg/ml) or controls (media only for negative control or 50 μM NaN3 for positive control). Similarly, AMPS or 1% Triton 100-X as positive control or media only (negative control) was each added to separate wells and allowed to be absorbed into agar at room temperature. All experiments were incubated for 24 hr at 37° C., 5% CO2. All experiments were done in duplicates. Cytotoxicity for J774.16 or A549 cells was monitored using Trypan Blue exclusion assay and the ratio of dead to viable cells was recorded. For sRBCs, the presence of cell lysis after 24 hr of incubation at 37° C. following treatment indicated cytotoxicity.
# [1] = system: lung epithelial A549 cell line; assay: Peptide cytotoxicity, Trypan Blue exclusion assay; assay type: cell-based, human
# Method: as §1
# [2] = system: M. tuberculosis strain MC26230
# [3] = 170 μM peptide concentration, compared with the negative control
Substance,MIC (M. tuberculosis MC26020),cytotoxic concentration (320 μg/mL) relative to MIC against mycobacteria and streptococci (macrophage J774.16 cells),cell death (macrophage J774.16 cells; 24 hr),"cytotoxicity (macrophage J774.16 cells; 320 μg/mL, 24 hr)","cytotoxicity [1, 3]","cytotoxicity ([1]; milder than on J774.16 cells, concentration not restated (320 μg/mL in preceding sentence))",MIC [2]
"ILSLRWRWKWWKK-NH2 [Peptide B1, ILSLRWRWKWWKK]",32 µg/mL,,,,,,
"ILSLRWRWWKWKK-NH2 [Peptide B3, ILSLRWRWWKWKK]",8 µg/mL,at least five times the MIC,40%,moderate cytotoxicity,Slight cytotoxicity,some degree of cytotoxicity,64 µg/mL
"ILSLRWWRKWWKK-NH2 [Peptide B2, ILSLRWWRKWWKK]",32 µg/mL,,20%,,Slight cytotoxicity,,
"IRKLKSWKWLRWL-NH2 [Peptide B4, IRKLKSWKWLRWL]",32 µg/mL,,,,,,
